This is an account of results in patent US20240374580A1, “SMALL MOLECULE INHIBITORS OF AUTOPHAGY AND HISTONE DEACTYLASES AND USES THEREOF” (priority 2021, published 2024).

Read-outs that look alike come from different tables or passages of the source.

The nature of series [1]: Phase I clinical trial of HCQ with vorinostat, pharmacokinetic analyses. The following applies: humans.
The procedure of series [2]:
FIG. 13. […] Mice were treated with vehicle, ROC-325, or HCQ as indicated daily for 42 consecutive days. […] Mean±SD.
(§1) The majority of lysosomal proteases that control the autophagy-mediated degradation of proteins and organelles require a strict acidic pH microenvironment for their enzymatic activity. Based on this, lysosomal acidity is commonly used as a marker of autophagy status. We treated leukemia cells with ROC-325 and used LysoSensor Green to evaluate the effects of drug treatment on lysosomal pH.

A further series can be described thus: clinical. The note with it: human, in vivo.
The test system of series [3] is isolated perfused and ventilated lungs. Put plainly: PAP in isolated perfused and ventilated lungs (CHQ). The note with it: 200 μM, intrapulmonary application. The protocol: FIG. 5A-C. […] (A) Left, PAP in isolated perfused and ventilated lungs before, during and after repeated pulmonary arterial perfusion of 40 mM K+ (40K) solution.
(§2) Similarly. […] Additionally.

Another series deals with SuHx-PH rat model. Put plainly: Established PH in the SuHx rat model. The series is classed as in vivo. The note with it: 50 mg/kg/day for 2 weeks after 3 weeks SuHx.
Description: FIG. 9A-C. […] (A) Representative right ventricular pressure (RVP).
as §2

The test system of another series is HPH in rats. Put plainly: Development of HPH in rats (hypoxia 10% O2 for 21 days). The following applies: 50 mg/kg/day, hypoxia 21 days. The series is classed as in vivo, rat.
Description: (E) Representative H&E images of small PAs in Nor, Nor+CHQ, Hyp and Hyp+CHQ rats.
as §2

The subject of series [4] is human PASMC. Put plainly: Autophagy markers P62 and LC3B in PASMC (Western blot, immunofluorescence). Type of series: cell-based. The note with it: 20 μM, 24 h.
Description: as §2

Another series deals with rings of rat PA. As to the method:
Due to the key role of autophagy in the pathogenesis of many diseases, we (the inventors) were very interested in exploring the benefit of autophagy inhibition for other indications beyond cancer. […] Such experiments first quantified the vasorelaxant effect on rings of rat PA (FIG. 2). […] Similarly. […] Additionally. […] Rats were given a subcutaneous (s.c.) injection of 20 mg/kg SU5416 or vehicle, followed by hypoxia (SuHx) for 3 weeks (10% 02) and normoxia for an additional 2 weeks to elicit severe PH. […] The normoxic control group was exposed to room air only (21% 02) for a total of 5 weeks (Nor).

The test system of series [5] is human PASMC. Put plainly: Ca2+ dynamics and whole-cell Ca2+ currents in PASMC. The series is classed as cell-based. The protocol:
(B) Summarized data showing the amplitude of increase in [Ca2+]cyt induced by application of 10 μM CPA in the absence (first peak) or presence (second peak) of 1.8 mM extracellular Ca2+ (n=44-54 PASMC). […] (D) Summarized data showing [Ca2+]cyt before (basal) and during (ATP) application of ATP in control and CHQ-treated PASMC. Means±SEM, *P<0.05. (E) Summarized data showing ATP-induced increases in [Ca2+]cyt in control and CHQ-treated PASMC. means±SEM *P<0.05. […] Means±SEM, *P<0.05. (G) The current-voltage (I-V) relationship curves constructed from current recordings in PASMC before (Cont), during (CHQ) and after (wash) application of CHQ.
as §2

The test system of series [6] is isolated perfused/ventilated mouse lungs. Put plainly: PAP in isolated perfused/ventilated mouse lungs (ROC-325). The note with it: intrapulmonary perfusion for 5 min, 40 mM K+. The protocol: (§3) FIG. 14A-E. ROC-325 has promising therapeutic activity in models of PH. A-C: in vivo intact animal experiments (ROC-325 was administered daily at 10 mg/kg for 4w). (A) Representative record showing right ventricular pressure (RVP) in control and ROC-treated rats during normoxia. […] (B) Representative record showing right ventricular pressure (RVP) in control rats, MCT-injected rats and MCT-injected rats treated with ROC. (C) Summarized data showing right ventricular systolic pressure (RVSP), a surrogate measure for pulmonary arterial systolic pressure ([…]), in control, MCT-rats (treated with vehicle) and MCT-rats treated with ROC. […] D-E: ex vivo experiment using isolated perfused/ventilated mouse lungs (ROC was applied via intrapulmonary perfusion for 5 min). (D) Representative record showing pulmonary arterial pressure (PAP) in isolated perfused/ventilated mouse lung before, during and after intrapulmonary arterial perfusion of 40 mM K+ (40K) in the absence or presence of ROC. (E) Summarized data showing 40K-induced increases in PAP before (control), during (ROC) and after (washout) application of ROC.
(§4) Finally, we tested the therapeutic benefit of ROC-325 in models of experimental PH (FIG. 14). ROC-325 was administered to rats daily at 10 mg/kg for 4w under normoxic and hypoxic conditions. […]

The test system of series [7] is autophagy. Put plainly: Initial preclinical studies of potency against HCQ. The note with it: greater than HCQ. The source says:
(§5) Example data from our published studies are shown here.

A further series concerns MV4-11 cells. Put plainly: Transmission electron microscopy of autophagosomes. Type of series: cell-based. The note with it: 1 μM. The protocol:
FIG. 11. ROC-325 triggers the formation of autophagosomes with undegraded cargo. MV4-11 cells were treated with 1 μM ROC-325 as indicated and visualized by transmission electron microscopy (TEM).
as §5

Series [8] is described as follows: Oral availability of ROC-325. The note with it: in vivo.
Description: as §5

The subject of a further series is MCT-injected rats. Put plainly: RVP/RVSP in control and MCT-injected rats. The note with it: 10 mg/kg daily for 4w. The series is classed as in vivo, rat. The protocol:
as §3, §4

Series [9] relates to autophagy. Put plainly: Autophagy markers LC3B and p62 after ROC-325. The series is classed as cell-based.
Description: as §5

The next series has as its system leukemia cells. Put plainly: LysoSensor Green lysosomal pH (confocal microscopy, FACS). The series is classed as cell-based. The note with it: 1 μM, 6 h. The protocol:
FIG. 12. Treatment with ROC-325 leads to lysosomal deacidification. Cells were treated with 1 μM ROC-325 for 6 h, stained with Lysosensor Green and propidium iodide (PI, nuclear counterstain) and then visualized by confocal microscopy.
as §5

The subject of series [10] is broad range of tumor types. The note with it: cited from earlier work.
In series [11] the test system is normal human CD34+ bone marrow (BM) cells.
Description: as §1

Series [12] concerns renal proximal tubal endothelial cells (RPTEC).
Description: as §1

In the case of `CCN(CCO)CCCC(C)Nc1ccnc2cc(Cl)ccc12` (stereo not drawn) [HCQ, hydroxychloroquine], the “maximum tolerated dose (MTD)” value in series [1] was found to be 600 mg/day. Moreover, the mouse body weight result in [2] (mouse, in vivo) is “No significant loss of mouse body weight”. Besides, the Cmax in the series “clinical” was < 3 µM.

On to `CCN(CC)CCCC(C)Nc1ccnc2cc(Cl)ccc12` (stereo not drawn) [CHQ, chloroquine], for which, in series [3], the “40K-induced increases in PAP” value was “could antagonize the 40K-induced increases in PAP” and the “pulmonary vasoconstriction induced by high K+ or hypoxia” value is “attenuates pulmonary vasoconstriction induced by high K+ concentrations or hypoxia”. Further, in the series with SuHx-PH rat model, the “progression of established PH” value was “significant therapeutic benefit against established PH progression” and the “reversal of established PH” value is listed as “partially reversed established PH”. In addition, in the series with HPH in rats, the PA wall thickness result was “reduced PA wall thickness” and the “right ventricular systolic pressure (RVSP)” value is “significantly reduced RVSP”. Also, the “autophagy (p62 and LC3B)” value in the series with human PASMC [4] was “inhibited autophagy”. The “role of the endothelium in the vasorelaxant effect” value in the series on rings of rat PA (200 μM, endothelium-intact or endothelium-denuded rings pre-constricted with 1 μM PE) is recorded as “endothelium independent”. Further, in the series with rings of rat PA (200 μM, rings pretreated with paxilline, TEA or ChTX), the “effect of K+ channel blockade on pulmonary vasodilation” value is “does not affect the ability of CHQ to induce pulmonary vasodilation”. Besides, the “isometric tension in isolated PA rings” value with rings of rat PA (rings constricted with 1 μM phenylephrine (PE)) was “decreased isometric tension”. The “store-operated Ca2+ entry” value with human PASMC [5] (200 μM, 10 μM CPA) is “inhibits store-operated Ca2+ entry”. Moreover, the “whole-cell Ca2+ currents” value with human PASMC [5] (test pulse of +10 mV from −70 mV) is “reduces whole-cell Ca2+ currents”.

As to `Cc1ccc(NCCN(C)CCNc2ccnc3cc(Cl)ccc23)c2c(=O)c3ccccc3sc12` [ROC-325], in [6], the “high K+-induced pulmonary vasoconstriction (PAP)” value is recorded as “acutely inhibits high K+-induced pulmonary vasoconstriction”. Also, the “potency relative to HCQ” value with autophagy [7] is recorded as “approximately 10 fold”. The “autophagosomes with undegraded cargo (TEM)” value in the series on MV4-11 cells is on record as “triggered the accumulation of autophagosomes with undegraded cargo”. Further, the oral bioavailability entry in series [8] is recorded as “orally bioavailable”. The “basal hemodynamics (RVP) in control rats” value with MCT-injected rats is given as “no effect on basal hemodynamics”. Moreover, the “development of experimental PH (RVSP)” value in the series with MCT-injected rats (MCT-injected rats) was “significantly inhibited the development of experimental PH”. Besides, in the series with autophagy [9], the “autophagy marker LC3B” value is reported as “stimulated the autophagy marker LC3B” and the p62 result is recorded as “accumulation of p62”. The mouse body weight entry in [2] (daily for 42 consecutive days) is listed as “No significant loss of mouse body weight”. Also, the tolerability result in [2] (oral, daily, 42 days, mice) is on record as “confirmed its tolerability”. In the series with leukemia cells, the “lysosomal pH (LysoSensor Green fluorescence)” value is “stimulated lysosomal deacidification”. In addition, the “single agent anticancer activity compared to HCQ” value in series [10] (broad range of tumor types) was “significantly superior single agent anticancer activity”. Also, the “dose needed to inhibit autophagy compared to HCQ” value in [10] is “inhibits autophagy at significantly lower doses”. In series [11], the therapeutic selectivity result is listed as “strong therapeutic selectivity”. The therapeutic selectivity entry in series [12] is on record as “strong therapeutic selectivity”.
